Like-named read-outs stand apart in the source and are kept apart here.
Assays:
PDE V = PDE V (Oryctolagus cuniculus, UniProt G1SX67); assay: Measurement of Inhibition of PDE V (cyclic nucleotide phosphodiesterase assay); format: biochemical, rabbit; conditions: for IC50: 1 μM cGMP or cAMP, pH 7.4, 30° C., 30 minutes, 10% DMSO, read-out: Activity IC50 (PDEV inhibitory activity); for inhibition at 20 µM / inhibition at 10 µM: read-out: Activity Inhibition % at (conc. μM)
erectile dysfunction [1] = conditions: cited from earlier work
erectile dysfunction [2] = conditions: cited from earlier work; remark: listed apart in the source

| Compound | IC50 (PDE V) [nM] | inhibition at 10 µM (PDE V) [%] | other results |
| --- | --- | --- | --- |
| CCCc1nn(C)c2c(=O)[nH]c(-c3sccc3OCC)nc12 [Compound 4, 5-(3-Ethoxythiophene-2-yl)-1-methyl-3-n-propyl-6,7-dihydro-1H-pyrazolo-[4,3-d]pyrimidin-7-one] | 470 |  |  |
| CCCc1nn(C)c2c(=O)[nH]c(-c3sc(S(=O)(=O)N4CCN(C)CC4)cc3OCC)nc12 [Compound 5, 5-[3-Ethoxy-5-(4-methylpiperazinylsulfonyl)-thiophene-2-yl]-1-methyl-3-n-propyl-6,7-dihydro-1H-pyrazolo-[4,3-d]pyrimidin-7-one] | 8000 |  |  |
| CCCc1nn(C)c2c(=O)[nH]c(-c3sc(S(=O)(=O)N4CCN(C)CC4)cc3O)nc12 [Compound 6, 5-[3-hydroxy-5-(4-methylpiperazinylsulfonyl)-thiophene-2-yl]-1-methyl-3-n-propyl-6,7-dihydro-1H-pyrazolo-[4,3-d]pyrimidin-7-one] | 10000 |  |  |
| CCCc1nn(C)c2c(=O)[nH]c(-c3cc4cccc(OCC)c4o3)nc12 [Compound 7, 5-(7-Ethoxybenzofuran-2-yl)-1-methyl-3-n-propyl-6,7-dihydro-1H-pyrazolo-[4,3-d]pyrimidin-7-one] | 910 |  |  |
| CCCc1nn(C)c2c(=O)[nH]c(-c3cc4c(S(=O)(=O)N5CCN(C)CC5)ccc(OCC)c4o3)nc12 [Compound 8] | 5400 |  |  |
| CCCc1nn(C)c2c(=O)[nH]c(-c3cc4c(S(=O)(=O)N5CCN(C)CC5)cc(S(=O)(=O)N5CCN(C)CC5)c(OCC)c4o3)nc12 [Compound 9] |  |  | inhibition at 20 µM (PDE V): 6% |
| CCCc1nn(C)c2c(=O)[nH]c(-c3cccn3C)nc12 [Compound 10] | 3500 |  |  |
| CCCc1nn(C)c2c(=O)[nH]c(-c3cc(S(=O)(=O)N4CCN(C)CC4)cn3C)nc12 [Compound 11] |  | 31 |  |
| CCCc1nn(C)c2c(=O)[nH]c(-c3sc(S(=O)(=O)N4CCN(c5ncccn5)CC4)cc3OCC)nc12 [Compound 12] | 1200 |  |  |
| CCCc1nn(C)c2c(=O)[nH]c(-c3sc(S(=O)(=O)N4CCN(Cc5ccccc5)CC4)cc3OCC)nc12 [Compound 13] |  |  | inhibition at 20 µM (PDE V): 46% |
| CCCc1nn(C)c2c(=O)[nH]c(-c3sc(S(=O)(=O)N4CCN(Cc5ccccc5)CC4)cc3O)nc12 [Compound 14] |  |  | inhibition at 20 µM (PDE V): 18% |
| CCCc1nn(C)c2c(=O)[nH]c(-c3sc(S(=O)(=O)N4CCN(c5ncccn5)CC4)cc3O)nc12 [Compound 15] |  |  | inhibition at 20 µM (PDE V): 13% |
| CCCc1nn(C)c2c(=O)[nH]c(-c3sc(S(=O)(=O)N4CCN(c5ccccc5)CC4)cc3OCC)nc12 [Compound 16] |  | 19 |  |
| CCCc1nn(C)c2c(=O)[nH]c(-c3sc(S(=O)(=O)N4CCN(c5ccccc5)CC4)cc3O)nc12 [Compound 17] |  | 28 |  |
| CCCc1nn(C)c2c(=O)[nH]c(-c3sc(S(=O)(=O)N4CCN(C/C=C/c5ccccc5)CC4)cc3OCC)nc12 [Compound 18] |  | 44 |  |
| CCCc1nn(C)c2c(=O)[nH]c(-c3sc(S(=O)(=O)N4CCN(C/C=C/c5ccccc5)CC4)cc3O)nc12 [Compound 19] |  | 27 |  |
| CCCc1nn(C)c2c(=O)[nH]c(-c3sc(S(=O)(=O)N4CCN(C(N)=O)CC4)cc3OCC)nc12 [Compound 20] | 950 |  |  |

| Compound | IC50 (PDE V) [nM] | inhibition at 10 µM (PDE V) [%] | other results |
| --- | --- | --- | --- |
| CCCc1nn(C)c2c(=O)[nH]c(-c3sc(S(=O)(=O)N4CCN(C(N)=O)CC4)cc3O)nc12 [Compound 21] |  | 30 |  |
| CCCc1nn(C)c2c(=O)[nH]c(-c3sc(S(=O)(=O)N(C)C)cc3OCC)nc12 [Compound 22] | 1400 |  |  |
| CCCc1nn(C)c2c(=O)[nH]c(-c3sc(S(=O)(=O)N(C)C)cc3O)nc12 [Compound 23] |  | 30 |  |
| CCCc1nn(C)c2c(=O)[nH]c(-c3sc(S(=O)(=O)N4CCN(CC)CC4)cc3OCC)nc12 [Compound 24] | 2300 |  |  |
| CCCc1nn(C)c2c(=O)[nH]c(-c3sc(S(=O)(=O)N4CCN(CC)CC4)cc3O)nc12 [Compound 25] |  | 26 |  |
| CCCc1nn(C)c2c(=O)[nH]c(-c3sc(S(=O)(=O)N(C)CCN(C)C)cc3OCC)nc12 [Compound 26] | 4900 |  |  |
| CCCc1nn(C)c2c(=O)[nH]c(-c3sc(S(=O)(=O)N(C)CCN(C)C)cc3O)nc12 [Compound 27] |  | 32 |  |
| CCCc1nn(C)c2c(=O)[nH]c(-c3cccs3)nc12 [Compound 28] | 1600 |  |  |
| CCCc1nn(C)c2c(=O)[nH]c(-c3sc(S(=O)(=O)N4CCC(N(C)C)CC4)cc3OCC)nc12 [Compound 29] | 8300 |  |  |
| CCCc1nn(C)c2c(=O)[nH]c(-c3sc(S(=O)(=O)N4CCN(C5CCCCC5)CC4)cc3OCC)nc12 [Compound 30] |  | 33 |  |
| CCCc1nn(C)c2c(=O)[nH]c(-c3sc(S(=O)(=O)N4CCN(C5CCCCC5)CC4)cc3O)nc12 [Compound 31] |  | 31 |  |
| CCCc1nn(C)c2c(=O)[nH]c(-c3cc(S(=O)(=O)N4CCN(c5ncccn5)CC4)cn3C)nc12 [Compound 32] |  | 31 |  |
| CCCCC[C@H](O)/C=C/[C@H]1[C@H](O)CC(=O)[C@@H]1CCCCCCC(=O)O [alprostadil] |  |  | side effects (erectile dysfunction [1]; in vivo): priapism, fibrosis, penile pain and hematoma at the injection site |
| COc1ccc(Cc2nccc3cc(OC)c(OC)cc23)cc1OC [papaverine] |  |  | side effects (erectile dysfunction [1]; direct intracavernosal or intraurethral injection): priapism, fibrosis, penile pain and hematoma at the injection site |
| Cc1ccc(N(CC2=NCCN2)c2cccc(O)c2)cc1 [phentolamine] |  |  | side effects (erectile dysfunction [1]; in vivo): priapism, fibrosis, penile pain and hematoma at the injection site |
| CCCc1nn(C)c2c(=O)[nH]c(-c3cc(S(=O)(=O)N4CCN(C)CC4)ccc3OCC)nc12 [sildenafil, 5-[2-ethoxy-5-(4-methylpiperazin-1-ylsulphonyl)phenyl]-1-methyl-3-n-propyl-6,7-dihydro-1H-pyrazolo[4,3-d]pyrimidin-7-one] |  |  | improved sexual function in men who suffer from ED (erectile dysfunction [2]; ED of psychogenic or organic etiology, share of men): about 70%; patients with improved erections (erectile dysfunction [2]; patients who had undergone a radical prostatectomy, versus 15% on placebo): 43%; undesirable side effects (erectile dysfunction [2]; use of sildenafil): headache, flushing and disrupted color vision |
